Structures are written as SMILES.

Assay [1] concerns the target T1, melibiose permease MelBSt (WT) (Salmonella enterica, UniProt P30878). Description: ITC, […] NaCl, […] °C. The class given is binding. More on the design: gene melB; WT MelBSt/CHis10.
Assay [2] addresses T1, melibiose permease MelBSt (WT). Put plainly: α-NPG downhill transport in E. coli DW2 cells (p-nitrophenol release). The class given is cell-based. Also on record: gene melB; WT MelBSt/CHis10 expressed in E. coli DW2 cells.
Assay [3] shares this target. Description: ITC, […] NaCl, […] °C; [3H]raffinose transport in cells. The class given is binding. More on the design: gene melB; WT MelBSt/CHis10. In general terms: ITC needs no label: the signal is the heat of the interaction.

T1 sequence (P30878 whole entry): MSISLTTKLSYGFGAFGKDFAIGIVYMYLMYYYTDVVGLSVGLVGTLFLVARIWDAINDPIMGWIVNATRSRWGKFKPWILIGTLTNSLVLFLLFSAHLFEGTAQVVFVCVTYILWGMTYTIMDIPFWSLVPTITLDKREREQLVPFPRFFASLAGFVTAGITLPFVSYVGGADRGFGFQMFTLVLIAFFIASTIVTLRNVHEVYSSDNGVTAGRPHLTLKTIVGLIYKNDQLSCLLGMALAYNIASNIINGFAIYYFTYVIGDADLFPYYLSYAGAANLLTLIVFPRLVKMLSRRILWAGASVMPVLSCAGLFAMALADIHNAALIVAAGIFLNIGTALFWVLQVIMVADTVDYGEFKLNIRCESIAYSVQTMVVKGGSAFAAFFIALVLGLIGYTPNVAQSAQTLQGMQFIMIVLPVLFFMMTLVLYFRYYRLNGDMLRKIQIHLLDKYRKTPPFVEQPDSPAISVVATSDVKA

By Kd is commonly meant the equilibrium constant for the complex coming apart. Read a low Kd as tighter binding. `CO[C@H]1O[C@H](CO)[C@H](O)[C@H](O)[C@H]1O` [α-MG, methyl α-D-galactoside] registered a Kd in assay [1] of 880 ± 40 µM.
Turning to `O=[N+]([O-])c1ccc(O[C@H]2O[C@H](CO)[C@H](O)[C@H](O)[C@H]2O)cc1` [α-NPG, p-Nitrophenyl α-D-galactoside], the “α-NPG downhill transport in E. coli DW2 cells (p-nitrophenol release)” value in assay [2] is “both WT MelBSt and D59C uniport mutant mediated the translocation of α-NPG”.
For `OC[C@H]1O[C@H](OC[C@H]2O[C@H](O[C@]3(CO)O[C@H](CO)[C@@H](O)[C@@H]3O)[C@H](O)[C@@H](O)[C@@H]2O)[C@H](O)[C@@H](O)[C@H]1O` [raffinose, Raffinose], in assay [3], the dissociation constant Kd came out at 3790 ± 530 µM.

The values above are taken from paper PMC12851581, “Allosteric effects of the coupling cation in melibiose transporter MelB” (eLife, 2026).
